{
  "source": "patent US20150025012A1",
  "about": "“METHODS AND COMPOSITIONS FOR IDENTIFICATION, ASSESSMENT AND TREATMENT OF CANCERS ASSOCIATED WITH HEDGEHOG SIGNALING” (Infinity Pharmaceuticals, Inc., priority 2010, published 2015)",
  "key": {"tumor stroma": {"test_system": "tumor stroma", "experiment": "Microvascular density (CD31 IHC) in tumor", "format": "in vivo", "conditions": "after treatment with IPI-926"}, "Gli1 mRNA [1]": {"test_system": "Gli1 mRNA", "experiment": "Real-time RT-PCR of Gli1 mRNA in laser capture microdissected BCC tumor samples", "format": "in vivo, human", "conditions": "post-treatment versus pre-treatment, BCC patients", "procedure": "As a comparison, real-time RT-PCR was performed using RNA extracted from Laser Capture Microdissected tumor samples from BCC patients. The ddCt method was used to calculate the real-time PCR results (Livak K. J. et al. (2001) Methods. 25(4):402-8). FIG. 27 is a bar graph depicting the quantitation of Gli1 mRNA pre- and post treatment with IPI-926. Although a decrease level of Gli1 mRNA is detected post-treatment, the level of reduction is not as pronounced as that detected by evaluating nuclear localization of Gli1."}, "Gli1 mRNA [2]": {"test_system": "Gli1 mRNA", "experiment": "Gli1 mRNA expression in tumor stroma (RT-PCR)", "format": "in vivo, murine", "conditions": "animals receiving IPI-926 (40 mg/kg) compared to vehicle", "description": "In each of these cases, the action of IPI-926 coincides with downregulation of mRNA for Gli1, an important molecule in the Hedgehog signaling pathway, in the tumor stroma of experimental animals receiving IPI-926 (FIG. 12A). The downregulation of Gli1 mRNA can be used as a functional readout for inhibition of Hedgehog signaling. Moreover, in these models, it appears to be the cancer cells that express the ligand of the Hedgehog signaling pathway (FIG. 12B). Thus, without being bound by theory, Applicants believe that the tumor cells express Hedgehog ligand which signals to a tumor associated stromal cell.\nRNA for analysis was isolated from cell pellets or tumor tissue using the Ambion RNA 4-PCR isolation kit according to the manufacturer's guidance. Reverse transcription-PCR was performed for human GAPDH, Gli l and SHh and murine GAPDH, Gli1, PECAM and RGS5 using an ABI-7300 system with ABI primer/probes. Relative quantification of the expression data was obtained using the ΔΔCT method as described by Applied Biosystems."}, "[3]": {"test_system": "subcutaneous L3.6pl tumor model", "experiment": "Tumor perfusion by contrast enhanced high frequency ultrasound", "format": "in vivo, mice", "conditions": "IPI-926 orally 40 mg/kg for seven days, compared to vehicle", "procedure": "The L3.6pl tumor cell line was injected subcutaneously and treatment with IPI-926 was initiated. IPI-926 or vehicle was administered orally at 40 mg/kg for seven consecutive days. On the eighth day, animals were subjected to ultrasound image capture and analysis using the Vevo 2100 high frequency ultrasound instrument (Visualsonics) in conjunction with contrast enhancement (microbubbles) during the imaging procedure. Contrast agent was administered by iv administration during the imaging procedure and quantified by measuring echogenic signal derived from the contrast agent over time."}, "[4]": {"test_system": "human cell lines derived from patients with cancer", "conditions": "pancreatic cancer, medulloblastoma, lung cancer, multiple myeloma, leukemias, lymphomas; cited from earlier work"}, "Gli1": {"test_system": "Gli1", "experiment": "Nuclear Gli1 immunohistochemical staining of BCC lesion biopsies pre- and post-treatment", "format": "in vivo, human", "procedure": "For immunohistochemical (IHC) detection, tissue samples can be fixed in 10% neutral buffered formalin at room temperature before processing for paraffin embedding. The length of fixation depends on the size of the tissue, for example, overnight but not more than 22-24 hours for large tissues; and no more than 2 hours for small core or needle biopsies. The fixed tissues are sectioned to 7 microns […] and mounted on Superfrost Microscope™ slides (Fisher Scientific).\nPrior to incubation with anti-Gli1 antibody, antigen retrieval can be performed to break the protein cross-links formed by formalin fixation and thereby reveal hidden antigens. Antigen retrieval buffers with different buffer compositions and pH are commercially available, for example, CC1 (Tris/EDTA, pH 8.0; Ventana, Cat. No. 950-124); CC2 (citrate, pH 6.0; Ventana, Cat. No. 950-123); citrate buffer (pH 6.0; Invitrogen, Cat. No. 00-5000); Target Retrieval Solution (citrate, pH 6.1; Dako, Cat. No. S170084); Target Retrieval Solution (Tris/EDTA, pH 9.0; Dako, Cat. No. S236884); Diva Decloaker (citrate, pH 6.2; Biocare, Cat. No. DV2004 mM); and EDTA Decloaker (EDTA based, pH 8.5; Biocare, Cat. No. CB917 L).\nAnti-Gli1 antibodies that can be used to detect nuclear Gli1 protein in tumor samples are commercially available. Exemplary anti-Gli1 antibodies include, e.g., rabbit polyclonal and monoclonal antibody from Cell Signaling Technology (Cat. Nos. 2553 and 3538, respectively); rabbit polyclonal antibody (H-300) from Santa Cruz Biotechnology (Cat. No. se-20687, described in Chung et al., J. Clin. Oncol. 2011; 29(10):1326-34); rabbit polyclonal antibody from Abcam (Cat. No. ab92611); rabbit polyclonal antibody from Abnova (Cat. No. PAB10214); rabbit polyclonal antibody from GenWay Biotech (Cat. No. 18-732-292074); rabbit polyclonal antibody from LifeSpan BioSciences (Cat. No. LS-C66529-50); rabbit polyclonal antibody from Novus Biologicals (Cat. No. NBP1-03294); mouse polyclonal antibody from ProSci (Cat. No. 49-519); goat polyclonal antibody from R&D Systems (Cat. No. AF3455); and rabbit polyclonal antibody from United States Biological (Cat. No. G2035-51A).\nDetection of tumor nuclear Gli1 staining in basal cell carcinomas (BCC) was performed using the protocols described in Example 9. FIGS. 23C and 23D show nuclear staining of Gli1 in biopsy samples of a BCC lesion pre- and 22-day post-treatment of IPI-926.\nThe definition of H-score is known in the art, e.g., as described in Detre, S. et al. (1995) J. Clin. Pathol. […] The intensity in the malignant cell nuclei can be scored as 0, 1, 2, or 3. […] The total number of cells in each field and the number of cells stained at each intensity are counted. The average percentage positive can be calculated and analyzed as described in Detre, S. et al. (1995) supra."}, "[5]": {"test_system": "preclinical in vivo tumor models", "conditions": "medulloblastoma, SCLC, NSCLC, skin, head and neck, ovarian cancer; cited from earlier work"}, "[6]": {"conditions": "post treatment versus pre treatment BCC sample"}},
  "note": "“Also recorded” adds a separate entry of the source.",
  "data": [
    {"smiles": "CC1=C2C[C@H]3[C@@H](CC[C@@H]4C[C@H](NS(C)(=O)=O)CC[C@@]43C)[C@@H]2CC[C@@]2(C1)O[C@@H]1C[C@H](C)CN[C@H]1[C@H]2C", "note": "[IPI-926]", "values": [
      {"measurement": "microvascular density (MVD, CD31 IHC)", "setting": "tumor stroma", "result": "increased"},
      {"measurement": "level of Gli1 mRNA", "setting": "Gli1 mRNA [1]", "result": "decrease"},
      {"measurement": "Gli1 mRNA expression in tumor stroma", "setting": "Gli1 mRNA [2]", "result": "inhibition; also recorded: suppression; also recorded: downregulation"},
      {"measurement": "time to reach peak contrast", "setting": "[3]", "result": "decrease; also recorded: change"},
      {"measurement": "in vitro growth of human cell lines", "setting": "[4]", "result": "inhibit"},
      {"measurement": "overall reduction of Gli1 protein staining", "setting": "Gli1; [6]", "result": 57, "unit": "%"},
      {"measurement": "reduction in nuclear Gli1 stain", "setting": "Gli1; [6]", "result": 60, "unit": "%"},
      {"measurement": "nuclei stained positive for Gli1", "setting": "Gli1; post-treatment (27% before treatment)", "result": 16, "unit": "%"},
      {"measurement": "H-score of Gli1 staining", "setting": "Gli1; post-treatment (100 before treatment)", "result": 57},
      {"measurement": "tumor growth in preclinical in vivo models", "setting": "[5]", "result": "tumor growth inhibition"}
    ]}
  ]
}
